Laboratory results published in paper PMC7782499, “Progerinin, an optimized progerin-lamin A binding inhibitor, ameliorates premature senescence phenotypes of Hutchinson-Gilford progeria syndrome” (Communications Biology, 2021).

Test system: Beagle dogs
Test: Maximum tolerated dose study in Beagle dogs, escalated-dose oral administration
Assay type: in vivo
Design: HGB: unit not given here
Settings: for A/G / ALB / ALP / ALT / AST / BASO / BUN / CHO / CRE / EOS / GLU / HCT / HGB / K+ / LYM / MCH / MCHC / MCV / MONO / NEU / Na+ / PLT / PRO / RBC / Reti / T-BIL / TG / WBC: ~24 h post dose
Text: The protocol and procedures involving the care and use of animals in this study was reviewed and approved by IACUC of QuBEST BIO prior to conduct (Approval no.: QBSIACUC-A18142). During the study, the care and use of animals will be conducted in accordance with all applicable guidelines of Animal Welfare Act. Non-naive one male and one female Beagle dogs (~16–24 months old, original supplier: ORIENTBIO Co., Ltd, Korea) were selected from the stock colony and assigned for the study. The route of administration was the oral (by gavage) route, which is the anticipated clinical route of exposure. Test article formulations were administered once via oral gavage. The day of 1st dosing was designated as Day 1. Each dose was administered via a syringe attached with 12-french feeding tube. A dose volume of 5 ml/kg was used and individual dose volumes were based on the most recent body weight. Each dose was followed by a distilled water of 5 ml. Each animal was observed twice daily (a.m. and p.m.) for mortality and moribundity; findings were recorded as they were observed. Cage side observations were made for each animal once daily; abnormal findings were recorded. […] Body weights were measured prior to each dosing. […] Prior to dosing and ~24 h post each dose, blood was collected as the same method and frequency with hematology analysis using no anticoagulant and then serum was separated by centrifugation and stored at freezer until analyze (AU 400, Olympus, Japan; […] 744 Na^+/K^+/[…] Analyzer, SIEMENS, Germany). In terminal procedures, all surviving animals were returned to the stock colony without necropsy. Toxicity studies were performed by QuBEST BIO Co., Ltd (Yongin, Korea).
The objective of this study was to determine the maximum tolerated dose (MTD) of SLC-D011 following dose escalation by oral gavage to Beagle dogs.
The study group was detailed in Text Table 1.
Text Table 1. Study Group
Dose Level Dose Conc. No. of Animals†
Group Treatment (mg/kg) (mg/mL)
†: Animals were re-used for each dose with at least 4-day wash-out period.
The following parameters were evaluated in this study: mortality, clinical signs, body weights and clinical pathology parameters (hematology and serum biochemistry).
Mortality and Clinical Observations
All animals survived until end of the study. Test article-related clinical observations were limited to oily soft stool in the 100 mg/kg/day group animals and vomitus (frothy) and soft sto ol in the 400 […]
Clinical Pathology Parameters (Hematology and Serum Chemistry) […]
the 100 and 400 mg/kg group animals on approximately 24 hours post each dose, compared to pre […]
Based on the results of this study, the maximum tolerated dose (MTD) of SLC-D011 was considered to […]
Test article formulations were administered once via oral gavage. The day of 1st dosing was designated […]
Each dose was administered via a syringe attached with 12-french feeding tube. A dose volume of 5 mL/kg was used and individual dose volumes were based on the most recent body weight. Each dose was followed by a distilled water of 5 mL. […]
Each animal was observed twice daily (a.m. and p.m.) for mortality and moribundity; findings were recorded as they were observed. Cage side observations were made for each animal once daily; abnormal findings were recorded. Detailed observations were made for each animal once prior to treatment; abnormal findings (ranked/graded, if appropriate) or an indication the animal appears […]
Body weights were measured prior to each dosing. […]
Prior to each dosing and approximately 24 hours post each dose, blood samples for hematology examination were collected from the via cephalic vein into tubes with K2EDTA anticoagulant and […]
Parameters Unit Measurement Method
ⓐ RBC (Red blood cell count) 106/μL Electric Impedance […]
ⓒ HGB (Hemoglobin conc.) g/dL Cyanmethemoglobin […]

Compound: CC1(C)Oc2cc3oc(=O)ccc3cc2C[C@@H]1OC/C=C/c1ccccc1 [SLC-D011]
- Body weights (100 mg/kg/day group animals by Day 4): lower body weights were temporarily noted
- Hematology and serum chemistry parameters (in words) (100 and 400 mg/kg, ~24 hours post each dose vs pre dose): no toxicologically significant changes
- A/G (female F1, 100 mg/kg): 0.72
- ALB (female F1, 100 mg/kg): 2.62 g/dL
- ALP (female F1, 100 mg/kg): 106.7 U/L
- ALT (female F1, 100 mg/kg): 34.3 U/L
- AST (female F1, 100 mg/kg): 41.7 U/L
- BASO (female F1, 100 mg/kg): 0.6%
- BUN (female F1, 100 mg/kg): 17.7 mg/dL
- CHO (female F1, 100 mg/kg): 189.4 mg/dL
- CRE (female F1, 100 mg/kg): 0.82 mg/dL
- EOS (female F1, 100 mg/kg): 1.2%
- GLU (female F1, 100 mg/kg): 96.4 mg/dL
- HCT (female F1, 100 mg/kg): 47.8%
- HGB (female F1, 100 mg/kg): 15.6
- K+ (female F1, 100 mg/kg): 4.5 mmol/L
- LYM (female F1, 100 mg/kg): 39.9%
- MCH (female F1, 100 mg/kg): 22.5 pg
- MCHC (female F1, 100 mg/kg): 32.6 g/dL
- MCV (female F1, 100 mg/kg): 68.9 fL
- MONO (female F1, 100 mg/kg): 5.6%
- NEU (female F1, 100 mg/kg): 52.3%
- Na+ (female F1, 100 mg/kg): 141 mmol/L
- PLT (female F1, 100 mg/kg): 357 K/uL
- PRO (female F1, 100 mg/kg): 6.27 g/dL
- RBC (female F1, 100 mg/kg): 6.93 M/uL
- Reti (female F1, 100 mg/kg): 0.61%
- T-BIL (female F1, 100 mg/kg): 0.18 mg/dL
- TG (female F1, 100 mg/kg): 21.3 mg/dL
- WBC (female F1, 100 mg/kg): 7.80 K/uL
- A/G (female F1, 400 mg/kg): 0.78
- ALB (female F1, 400 mg/kg): 2.53 g/dL
- ALP (female F1, 400 mg/kg): 174.7 U/L
- ALT (female F1, 400 mg/kg): 39.1 U/L
- AST (female F1, 400 mg/kg): 34.5 U/L
- BASO (female F1, 400 mg/kg): 0.8%
- BUN (female F1, 400 mg/kg): 12.08 mg/dL
- CHO (female F1, 400 mg/kg): 175.1 mg/dL
- CRE (female F1, 400 mg/kg): 0.85 mg/dL
- EOS (female F1, 400 mg/kg): 1.4%
- GLU (female F1, 400 mg/kg): 104.39 mg/dL
- HCT (female F1, 400 mg/kg): 50.8%
- HGB (female F1, 400 mg/kg): 15.7
- K+ (female F1, 400 mg/kg): 4.9 mmol/L
- LYM (female F1, 400 mg/kg): 31.2%
- MCH (female F1, 400 mg/kg): 22.2 pg
- MCHC (female F1, 400 mg/kg): 30.9 g/dL
- MCV (female F1, 400 mg/kg): 71.7 fL
- MONO (female F1, 400 mg/kg): 6.5%
- NEU (female F1, 400 mg/kg): 59.6%
- Na+ (female F1, 400 mg/kg): 143 mmol/L
- PLT (female F1, 400 mg/kg): 378 K/uL
- PRO (female F1, 400 mg/kg): 5.76 g/dL
- RBC (female F1, 400 mg/kg): 7.08 M/uL
- Reti (female F1, 400 mg/kg): 0.95%
- T-BIL (female F1, 400 mg/kg): 0.15 mg/dL
- TG (female F1, 400 mg/kg): 29.3 mg/dL
- WBC (female F1, 400 mg/kg): 10.99 K/uL
- Mortality (female dog, 100 mg/kg): 0/1
- Clinical Observations Day 1 (female dog, 100 mg/kg, about 7 hours post dose): Soft stool (Oily)
- Mortality (female dog, 400 mg/kg): 0/1
- Clinical Observations Day 1 (female dog, 400 mg/kg, about 6 hours post dose): Black soft stool
- A/G (male M1, 100 mg/kg): 0.58
- ALB (male M1, 100 mg/kg): 2.41 g/dL
- ALP (male M1, 100 mg/kg): 83.4 U/L
- ALT (male M1, 100 mg/kg): 43.1 U/L
- AST (male M1, 100 mg/kg): 28 U/L
- BASO (male M1, 100 mg/kg): 0.2%
- BUN (male M1, 100 mg/kg): 16.83 mg/dL
- CHO (male M1, 100 mg/kg): 161 mg/dL
- CRE (male M1, 100 mg/kg): 0.7 mg/dL
- EOS (male M1, 100 mg/kg): 4.3%
- HCT (male M1, 100 mg/kg): 46.8%
- HGB (male M1, 100 mg/kg): 15.4
- K+ (male M1, 100 mg/kg): 4.8 mmol/L
- LYM (male M1, 100 mg/kg): 32.4%
- MCH (male M1, 100 mg/kg): 23.0 pg
- MCHC (male M1, 100 mg/kg): 33.0 g/dL
- MCV (male M1, 100 mg/kg): 69.9 fL
- MONO (male M1, 100 mg/kg): 7.1%
- NEU (male M1, 100 mg/kg): 55.7%
- Na+ (male M1, 100 mg/kg): 144 mmol/L
- PLT (male M1, 100 mg/kg): 354 K/uL
- RBC (male M1, 100 mg/kg): 6.69 M/uL
- Reti (male M1, 100 mg/kg): 0.15%
- T-BIL (male M1, 100 mg/kg): 0.1 mg/dL
- TG (male M1, 100 mg/kg): 28.9 mg/dL
- WBC (male M1, 100 mg/kg): 8.83 K/uL
- A/G (male M1, 400 mg/kg): 0.59
- ALB (male M1, 400 mg/kg): 2.37 g/dL
- ALP (male M1, 400 mg/kg): 94.3 U/L
- ALT (male M1, 400 mg/kg): 74.9 U/L
- AST (male M1, 400 mg/kg): 27.2 U/L
- BASO (male M1, 400 mg/kg): 0.6%
- BUN (male M1, 400 mg/kg): 16.17 mg/dL
- CHO (male M1, 400 mg/kg): 142 mg/dL
- CRE (male M1, 400 mg/kg): 0.79 mg/dL
- EOS (male M1, 400 mg/kg): 4.4%
- HCT (male M1, 400 mg/kg): 50.5%
- HGB (male M1, 400 mg/kg): 15.2
- K+ (male M1, 400 mg/kg): 5.1 mmol/L
- LYM (male M1, 400 mg/kg): 25.1%
- MCH (male M1, 400 mg/kg): 22.1 pg
- MCHC (male M1, 400 mg/kg): 30.1 g/dL
- MCV (male M1, 400 mg/kg): 73.2 fL
- MONO (male M1, 400 mg/kg): 7.9%
- NEU (male M1, 400 mg/kg): 61.7%
- Na+ (male M1, 400 mg/kg): 146 mmol/L
- PLT (male M1, 400 mg/kg): 347 K/uL
- RBC (male M1, 400 mg/kg): 6.90 M/uL
- Reti (male M1, 400 mg/kg): 0.34%
- T-BIL (male M1, 400 mg/kg): 0.12 mg/dL
- TG (male M1, 400 mg/kg): 34.4 mg/dL
- WBC (male M1, 400 mg/kg): 9.43 K/uL
- Mortality (male dog, 100 mg/kg): 0/1
- Clinical Observations Day 1 (male dog, 100 mg/kg, about 7 hours post dose): Brown soft stool (Oily)
- Mortality (male dog, 400 mg/kg): 0/1
- Clinical Observations Day 1 (male dog, 400 mg/kg, about 1 hours post dose): Vomitius (Frothy)
- Tolerability (single oral administration at 100 and 400 mg/kg): well tolerated
